Experimental data taken from US20220403339A1, “3D HUMAN LIVER ORGAN MODEL CONSTRUCTING METHOD, 3D HUMAN LIVER ORGAN MODEL AND USE THEREOF” (priority 2020, published 2022).

Legend:
[1] = tested on: human liver cancer cell lines hepG2; type: cell-based; details: 100 μM drug; 3D model I-1 (hepG2, 2000 cells per micropore) vs 2D comparison model I; FIG. 8
Procedure: (§1) 3. […] In a long-time administration test of the 3D human liver organ model, 100 μM is administered once, and if repeated administration is required, a drug is changed in the middle and the concentration is maintained. Each 3D human liver organ model and each 2D liver organ model need to be provided with a blank group, a negative control group and a positive control group, and each group is provided with six replicate wells.
(§2) 4. […] After drug incubation is completed, the culture medium with the drugs is removed, 100 μL of a mixed solution of a cell titer blue stock solution and a complete culture medium in a ratio of 1:5 is added, incubation is conducted for 3 h at 37° C., and a detection wavelength is […]. For example, the Cell titer 3D glo is added to evaluate the ATP of the 3D liver model, so that the action effect of the drugs is evaluated. After drug incubation is completed, the culture medium with the drugs is removed, 100 μL of a mixed solution of a Cell titer 3D glo stock solution and a complete culture medium in a ratio of 1:1 is added, incubation is conducted for 0.5 h at normal temperature, and detection is conducted in a Luminescence mode. For example, a high-content imaging technology is used for imaging characterization of the number of living and dead cells, and characterization of cell mitochondrial activity and membrane potential to evaluate hepatotoxicity drugs. The embodiment is applicable to, but not limited to, the above characterization method.

[2] = clinical classification; cited from earlier work
[3] = tested on: human primary liver cells; details: 100 μM drug; 3D model II-2 (human primary liver cells, 5000 cells per micropore) vs 2D comparison model II; FIG. 15
Procedure: as §1, §2

| Structure (SMILES) | hepatotoxicity inhibition on the 3D liver organ model compared with the 2D liver organ comparison model [1] | clinically confirmed hepatotoxicity class [2] | hepatotoxicity inhibition on the 3D liver organ model compared with the 2D liver organ comparison model [3] |
| --- | --- | --- | --- |
| CN(C)CCC=C1c2ccccc2CCc2ccccc21 [compound 12, amitriptyline] | stronger hepatotoxicity inhibition | low-hepatotoxicity |  |
| Cc1ccc(-c2cc(C(F)(F)F)nn2-c2ccc(S(N)(=O)=O)cc2)cc1 [compound 8, celecoxib] | stronger hepatotoxicity inhibition | low-hepatotoxicity |  |
| CN(CCOc1ccc(CC2SC(=O)NC2=O)cc1)c1ccccn1 (stereo not drawn) [compound 6, rosiglitazone] | stronger hepatotoxicity inhibition | low-hepatotoxicity | stronger hepatotoxicity inhibition |
| CN(C)[C@@H]1C(=O)C(C(N)=O)=C(O)[C@@]2(O)C(=O)C3=C(O)c4c(O)cccc4[C@@](C)(O)[C@H]3C[C@@H]12 [compound 9, tetracycline] |  | low-hepatotoxicity | stronger hepatotoxicity inhibition |
| COc1ccccc1Oc1c(NS(=O)(=O)c2ccc(C(C)(C)C)cc2)nc(-c2ncccn2)nc1OCCO [compound 5, bosentan] | stronger hepatotoxicity inhibition | low-hepatotoxicity | stronger hepatotoxicity inhibition |
| CC(=O)Nc1ccc(O)cc1 [compound 15, paracetamol] |  |  | stronger hepatotoxicity inhibition |
| O=C(OCC(O)CO)c1ccccc1Nc1ccnc2cc(Cl)ccc12 (stereo not drawn) [compound 10, glafenine] |  | low-hepatotoxicity | stronger hepatotoxicity inhibition |
